According to patent publication US20220112267A1, “PRODUCE AND ISOLATE AND/OR EXTRACT COLLAGEN AND/OR GELATIN FROM ANIMAL CELL LINES AND/OR TISSUE EXPLANTS” (Jellatech, Inc., priority 2020, published 2022):

Tests used:
Assay type in all cases: cell-based
various cell types = test: Effects of ginseng, palmitoleic acid and spirulina on collagen production in various cell types (FIG. 8-10)
Text: (§1) Moreover, FIG. 8 depicts a graph showing effects of ginseng on collagen production in various cell types. FIG. 8 has an x-axis 802 associated with a cell type and a ginseng concentration in μg/mL and a […] measuring a collagen concentration 806 and a protein concentration 808.
(§2) Further, FIG. 9 depicts a graph showing effects of palmitoleic acid on collagen production in various cell types. FIG. 9 has an x-axis 902 associated with a cell type and a palmitoleic acid concentration in μg/mL and a y-axis 904 measuring a collagen concentration 906 and a protein concentration 908.
(§3) FIG. 10 depicts a graph showing effects of a spirulina extract on collagen production in various cell types. FIG. 10 has an x-axis 1002 associated with a cell type and a spirulina extract concentration in μg/mL and a y-axis 1004 measuring a collagen concentration 1006 and a protein concentration 1008.
(§4) However, a total protein content is increased in bovine cells.

bovine cells [1] = test: Effects of ginseng, palmitoleic acid and spirulina on total protein content in bovine cells (FIG. 8-10)
Text: as §1, §2, §3, §4

bovine cells [2] = test: Collagen production under different concentrations of vitamin C, bovine cells (FIG. 7A, 7B); conditions: seeding density 40,000 or 70,000 cells/well, 96 well plate
Text: (§5) In another example, a collagen detection method using a dual dye assay is described and depicted in FIG. 4. This method measures collagen content of samples using dyes in order to estimate collagen production of adherent cells in cultures without extracting the collagen. Samples may include bovine derma primary fibroblast cell lines or BJ human fibroblast/primary cells, among others not explicitly listed herein. Materials utilized in the method of FIG. 4 include: about 70% ethanol, sterile water, picric acid (or 2,4,6-trinitrophenol), about 0.1% Fast Green FCF solution in saturated picric acid, about 0.4% Fast Green FCF solution and about 0.11% Sirius Red in the saturated picric acid, and about 0.1% NaOH in methanol. The Fast Green FCF dye is used for total protein and the Sirius Red dye is used for collagen content determination. Equipment utilized with the method of FIG. 4 includes a laminar flow cabinet, a spectrophotometer, and a pipette. A process step 406 follows the process step 404 and includes adding a saturated solution of picric acid in distilled water containing a first amount of the Fast Green dye. In examples, the first amount of the Fast Green dye is about 0.01%. […] A process step 420 follows the process step 418 and includes utilizing the spectrophotometer to measure an absorbance at 540 nm and 630 nm. […]

human cells = test: Collagen production under different concentrations of vitamin C, human cells (FIG. 7C, 7D); conditions: seeding density 40,000 or 70,000 cells/well, 96 well plate
Text: as §5

bovine cell lines = test: Factor supplementation, Sircol Collagen Assay, commercially available bovine cell lines; conditions: for collagen production: commercially available bovine cell lines, 3-10 days with factor
Procedure: (§6) In this embodiment, cells were seeded at approximately 3500-4500 cells per well of a 48 well-plate and were allowed to settle for about 48 hours before adding the factor. After about 48 hours, spent media was removed and replaced with growth media supplemented with the factor of interest. Cells continued to grow for about 3-10 days following initial introduction of the factor and a collagen content was quantified with a Sircol™ Collagen Assay. Additionally, experiments were conducted with and without media/factor replenishment about every 48-72 hours.

porcine cell line = test: Factor supplementation, Sircol Collagen Assay, commercially available porcine cell line; conditions: 3-10 days with factor
Procedure: as §6

human KEL-FIB cell line = test: Factor supplementation, Sircol Collagen Assay, human KEL-FIB cell line; conditions: for collagen production: 3-10 days with factor
Procedure: as §6

SMILES	effect on collagen production (various cell types)	total protein content (bovine cells [1])	concentration of vitamin C at which the highest collagen concentration resulted (bovine cells [2]) [mg/mL]	concentration of vitamin C at which the highest collagen concentration resulted (human cells) [mg/mL]	increase of collagen production (bovine cell lines; bovine cell lines)	collagen production (bovine cell lines)	collagen production (porcine cell line)	increase of collagen production (human KEL-FIB cell line)	collagen production (human KEL-FIB cell line)
CCCCCC/C=C\CCCCCCCC(=O)O [palmitoleic acid]	do not have a large effect	increased							
O=C1O[C@H]([C@@H](O)CO)C(O)=C1O [vitamin C]			10 to 100	10 to 100	28-36%	increased	increased	about 50%	increased
O=S(=O)([O-])[O-].[Zn+2] [zinc sulfate]						increased	increased		increased
